Consider two compounds from patent publication US11613547B2 (priority 2019, dated 2023).

Structures are written as SMILES. Where “and” joins values, the source holds several entries; their conditions need not be identical. Equal values may be shown once. Entries after “also recorded” stand apart in the source; their conditions may differ. Read-outs that look alike come from different tables or passages of the source.

For data set [1], the target named is T1, rat kappa opioid receptor (rKOR) (Rattus norvegicus, UniProt P34975).
T1 construct: expressed in transfected cells; host or cells: HEK-293T, transient (PEI), with BRET sensor cDNAs
In words: BRET assay, arrestin recruitment, rKOR. It is filed as cell-based. The note with it: BRET.

For data set [2], the system named is C57BL/6J mice. Briefly: 55° C. warm-water tail-withdrawal assay. Type of data set: in vivo, mouse. Particulars: icv, 55° C. tail withdrawal. How it is done: Tail-withdrawal assay The 55° C. warm-water tail-withdrawal assay was conducted in mice as a measure of acute thermal antinociception as described previously (Reilley et al., 2010). Briefly, each mouse was tested for baseline tail-withdrawal latency prior to drug administration. Following drug administration, the latency for each mouse to withdraw the tail was measured every 10 minutes until latency returned to the baseline value. A maximum response time of 15 seconds was utilized to prevent tissue damage. […] Data are reported as percent antinociception, calculated by the equation: % antinociception=100×[(test latency−baseline latency)/(15−baseline latency)]. This was utilized to account for innate variability between mice. Compounds were administered either, […] (IP) or intracerebroventricular (icv) and the analgesic action of compounds was assessed at the peak effect as described previously (Haley and McCormick, 1957). In brief, mice were anesthetized using isoflurane. A small incision was made, and the drug (2 μl/mouse) was injected (using a 10 μL Hamilton syringe fitted to a 27-gauge needle) into the right lateral ventricle at the following coordinates: 2 mm caudal to bregma, 2 mm lateral to sagittal suture, and 2 mm in depth. Mice were tested for analgesia at the peak effect post injection.

Data set [3] concerns the target T2, hMOR (Homo sapiens, UniProt P35372).
T2 construct: expressed in transfected cells; host or cells: HEK 293T (ATCC CRL-11268), transient
Briefly: cell-based. Type of data set: cell-based.

The target of data set [4] is T3, hDOR (Homo sapiens, UniProt P41143). Briefly: Tango β-arrestin recruitment assay, hDOR. Details: expressed in transfected cells; host or cells: HTLA cells expressing TEV fused-beta-Arrestin2. It is filed as cell-based.
Data set [5] has as its target T4, hKOR (Homo sapiens, UniProt P41145).
T4 construct: expressed in transfected cells; host or cells: HEK 293T (ATCC CRL-11268), transient
Briefly: Tango β-arrestin recruitment assay, hKOR. It is filed as cell-based. For orientation: Recruitment of arrestin is a read-out of receptor activation apart from second messengers.

The target of data set [6] is T4, hKOR. In words: cAMP inhibition assay (GloSensor, HEK 293T), hKOR. It is filed as cell-based.
Data set [7] concerns the target T5, mMOR (Mus musculus, UniProt P42866).
T5 construct: expressed in transfected cells
In words: Radioligand competition binding ([125I]IBNtxA), CHO membranes, mMOR. The note with it: vs 125IBNtxA (0.1 nM), mean ± SEM. On the technique in general: Displacement assays read how much labelled ligand stays bound in the presence of the test substance.

Data set [8] deals with T6, mouse mu opioid receptor (mMOR) (Mus musculus, UniProt P42866).
T6 construct: expressed in transfected cells; host or cells: HEK-293T, transient (PEI), with BRET sensor cDNAs
In words: cell-based. It is filed as cell-based.

Data set [9] deals with T7, mKOR (Mus musculus, UniProt P33534).
T7 construct: expressed in transfected cells
Briefly: Radioligand competition binding ([125I]IBNtxA), CHO membranes, mKOR. The note with it: vs 125IBNtxA (0.1 nM), mean ± SEM.

Data set [10] concerns the target T1, rat kappa opioid receptor (rKOR). Briefly: BRET assay, G-protein activation, rKOR. Type of data set: cell-based. In general terms: In BRET a luciferase serves as donor, and the signal depends on an acceptor being close.
Data set [11] concerns the target T8, mouse delta opioid receptor (mDOR) (Mus musculus, UniProt P32300).
T8 construct: expressed in transfected cells; host or cells: HEK-293T, transient (PEI), with BRET sensor cDNAs
Briefly: BRET assay, G-protein activation, mDOR. It is filed as cell-based.

Data set [12] has as its target T6, mouse mu opioid receptor (mMOR). Briefly: cell-based. It is filed as cell-based. The source holds these as a separate data set.
For data set [13], the target named is T9, mDOR (Mus musculus, UniProt P32300).
T9 construct: expressed in transfected cells
In words: [35S]GTPγS functional assay, mDOR. It is filed as biochemical.

Data set [14] has as its target T9, mDOR. In words: Radioligand competition binding ([125I]IBNtxA), CHO membranes, mDOR. The note with it: vs 125IBNtxA (0.1 nM), CHO membranes, mean ± SEM.
Data set [15] concerns the target T3, hDOR. Briefly: cAMP inhibition assay, hDOR. Type of data set: cell-based. Set-up: expressed in transfected cells.
In data set [16] the target is T5, mMOR. Briefly: [35S]GTPγS functional assay, mMOR. Type of data set: biochemical.
Data set [17] has as its target T7, mKOR. Briefly: [35S]GTPγS functional assay, mKOR. Type of data set: biochemical.
Data set [18] concerns the target T2, hMOR. In words: Tango β-arrestin recruitment assay, hMOR. It is filed as cell-based. Particulars: Tango.
Data set [19] concerns the target T10, Y312W-hKOR (Homo sapiens, UniProt P41145, Y312W). Briefly: cAMP inhibition assay, Y312W-hKOR mutant. It is filed as cell-based. Set-up: expressed in transfected cells; host or cells: HEK 293T (inferred from the general cAMP method).
Data set [20] concerns the target T10, Y312W-hKOR. In words: Tango-arrestin recruitment assay, Y312W-hKOR mutant. Particulars: Tango, compared with wild-type KOR. Type of data set: cell-based. Details: expressed in transfected cells.
Data set [21] relates to C57BL/6J mice. In words: Conditioned place preference and aversion. The note with it: MP1207 100 nmol icv, morphine 10 mg/kg IP, U50,488h 30 mg/kg IP.
Another data set deals with C57 mice. Briefly: Respiratory rate (CLAMS). Particulars: 10 mg/kg IP or 30 nmol icv, 10 mg/kg.
Data set [22] concerns C57BL/6J mice. Particulars: icv, same assay (Aldrich et al., 2014); cited from earlier work.

The EC50 is the concentration giving half of the maximal effect. A word on the Emax: it is the greatest response seen or fitted, relative to the assay's reference. One may read the Ki as a dissociation constant, usually derived from enzyme kinetics or from competition with a known ligand. A high value points to a looser hold on the target. One may read the IC50 as the concentration that inhibits the measured activity by half. The low end stands for inhibition by little substance, the high end for a need for much substance. Regarding `N=C(N)NCc1cccc(C(=O)N[C@@H]2CCC3C4Cc5ccc(O)c6c5[C@@]3(CCN4CC3CC3)C2O6)c1` (stereo partly drawn) [MP1208, N-((7R,12bS)-3-(Cyclopropylmethyl)-9-hydroxy-2,3,4,4a,5,6,7,7a-octahydro-1H-4,12-methanobenzofuro[3,2-e]isoquinolin-7-yl)-3-(guanidinomethyl)benzamide], in data set [1], the “arrestin recruitment at rKOR” value is on record as “no recruitment of βarrestin-2; also recorded: no arrestin recruitment was observed”. Also, in the data set with C57BL/6J mice [2], the “antinociceptive ED50 (95% CI)” value is 19.8 (12.6-34.0) nmol and 19.8 nmol. For the same compound, the EC50 was 1.86 nM on hMOR [3]; 0.008 nM on hMOR [3] (read-out: Gi EC50 hMOR); 3620 nM at hDOR [4] (hDOR, Tango); 16.4 nM at hKOR [5] (Tango, WT-hKOR); 0.14 nM at hKOR [6] (cAMP inhibition, read-out: Gi EC50 hKOR); 1.1 nM in [10] (BRET, read-out: Gi EC50 rKOR). Moreover, the EC50 in [11] (mDOR, BRET) was 26.6 nM; at mMOR [16] ([35S]GTPγS, nM ± SEM) it was 1.1 nM and 1.13 nM; at mKOR [17] ([35S]GTPγS, nM ± SEM), 1.4 nM and 1.36 nM. For the same compound, the Emax was found to be 42 ± 1.3% on hMOR [3] (HEK-293T, read-out: Gi Emax hMOR); 62 ± 16.7% on hDOR [4] (read-out: Arrestin recruitment Emax % ± SEM); 48 ± 2.4% at hKOR [5]; 96 ± 1.9% on hKOR [6] (HEK-293T, read-out: Gi Emax hKOR); 40 ± 2.4% in data set [10] (read-out: Gi Emax rKOR); 58 ± 3.3% in data set [11] (read-out: G-Protein activation Emax % ± SEM). Also, the Emax is 41 ± 3% in data set [12] (read-out: Gi Emax mMOR); 10 to 15% on mDOR [13]; 39 ± 1.8% on hDOR [15] (read-out: cAMP inhibition Emax % ± SEM); 54 ± 0.7% on mMOR [16]; 43 ± 0.8% at mKOR [17]; 97 ± 1% on Y312W-hKOR [19] (read-out: Gi Emax Y312W-hKOR). On hDOR [4] (hDOR, Tango), the “Arrestin recruitment pEC50 ± SEM” value stood at 5.5 ± 0.27. The “Arrestin pEC50±SEM hKOR” value at hKOR [5] (Tango, WT-hKOR) was found to be 7.79±0.14. Also, the “Gi pEC50±SEM hKOR” value on hKOR [6] (cAMP inhibition) was determined as 9.9±0.07. Moreover, the “Bias factor toward G protein, hKOR” value on hKOR [6] (cAMP inhibition vs Tango, against U50,488H as control) was 23. Further, the Ki is 0.34 ± 0.01 nM on mMOR [7], 0.28 nM on mKOR [9] and 19.3 nM at mDOR [14]. Moreover, in data set [8], the “arrestin recruitment at mMOR” value is reported as “no recruitment of βarrestin-2; also recorded: no arrestin recruitment was observed”. In [10] (BRET), the “Gi pEC50±SEM rKOR” value was found to be 8.97±0.29. The “G-Protein activation pEC50 ± SEM” value in data set [11] (mDOR, BRET) is given as 7.6 ± 0.20. Moreover, in data set [12], the “Gi pEC50±SEM mMOR” value amounted to 8.64±0.29. Moreover, the “efficacy at mDOR” value at mDOR [13] ([35S]GTPγS) is recorded as “only weak efficacy”. Further, the IC50 on mDOR [13] ([35S]GTPγS, antagonism vs 100 nM agonist) was 11.4 ± 0.3 nM. Moreover, the “cAMP inhibition pEC50 ± SEM” value at hDOR [15] (hDOR) turned out to be 8.6 ± 0.13. For the same compound, on hMOR [18], the “arrestin recruitment at hMOR” value was “no recruitment of arrestin was seen; also recorded: no arrestin recruitment was observed”. Moreover, the “Gi pEC50±SEM Y312W-hKOR” value at Y312W-hKOR [19] (cAMP inhibition) is 10.44±0.05. On Y312W-hKOR [20], the “arrestin recruitment at Y312W-hKOR” value is recorded as “further reduction of arrestin recruitment; also recorded: reduced arrestin measurement”.

On to `CN1CC[C@]23c4c5ccc(O)c4O[C@H]2[C@@H](O)C=C[C@H]3[C@H]1C5` [Morphine, reference compound], for which, in the data set with C57BL/6J mice [21], the “conditioned place preference or aversion (CPP/CPA)” value is given as “place preference”. Further, the respiratory rate result in the data set on C57 mice is “significant reduction in respiratory rates”; in the data set with C57 mice (listed as morphine) it was “decreased respiratory rate”. Further, in the data set with C57BL/6J mice [22], the “antinociceptive ED50 (95% CI), reported” value was 2.35 (1.13-5.03) nmol and 2.35 nmol.
